Patent US20230312473A1, “PROCESS FOR THE PREPARATION OF BIHETEROARYL COMPOUNDS AND CRYSTAL FORMS THEREOF” (Genentech, Inc., priority 2020, published 2023)
Read-outs that look alike come from different tables or passages of the source.

What was measured:
[1] = Solubility of compound 1 in the solvent under evaluation at 22° C. and 65° C. (crystallization study); assay type: physicochemical
Protocol: Crystalline compound 1 was evaluated. Crystallization study procedures were done based on the solubility of compound 1 in the solvent under evaluation as follows.
The results are presented below in Table 10 where: * refers to compound 1 prepared as described above; and ** refers to compound 1 prepared as described above and further incubated at 100% relative humidity at 22° C. for 17 days.

[2] = Mechanical stress evaluation: crystallinity by XRPD; assay type: physicochemical
Protocol: Compound 1, produced generally according to the method of Example 5, was evaluated for changes induced mechanical stress conditions, where crystallinity was evaluated by XRPD and where thermoanalytic characteristics were measured by differential scanning calorimetry (“DSC”), thermogravimetric analysis (“TGA”) and dynamic vapor sorption (“DVS”).
In a first evaluation, compound 1 was micronized by jet milling and evaluated by XRPD and DSC.
About 500 mg of compound 1 was dry grinded for about 5 minutes at ambient conditions with a mortar and pestle in order to simulate shear stresses encountered during a dry granulation. […] Furthermore, thermoanalytic data as measured by DSC, TGA, and DVS was only marginally different from compound 1 starting material (see Table 12 below).
The effect of pressure on compound 1 was performed to investigate whether phase transformation could occur during tableting. The conditions were 1.8 T/5 mm compact, 900 MPa, about 30 mg of compound 1, and a dwell time of about 6 seconds). The tablets were analyzed without further treatment and after gentle crushing of the tablets with a pestle. […] FIG. 2 pattern (b) is the XRPD pattern for crushed tablets. FIG. 2 pattern (c) is the XRPD pattern for tablets that were not crushed.
To simulate wet milling, wet manual grinding experiments were done. About 500 mg of compound 1 and about 0.5 mL water were kneaded for about 5 minutes with a mortar and pestle. About 100 mg of the wet material was analyzed by XRPD. The remainder of the material was dried overnight in an oven at 50° C. and ambient pressure. The dried material was analyzed by […], DSC, TGA, and DVS.

Work on `Nc1ncc(-c2cc(N3C[C@@H]4C[C@H]3CO4)nc(N3CCC(F)(F)C3)n2)cc1OC(F)F` [Compound 1, 5-(6-((1S,4S)-2-oxa-5-azabicyclo[2.2.1]heptan-5-yl)-2-(3,3-difluoropyrrolidin-1-yl)pyrimidin-4-yl)-3-(difluoromethoxy)pyridin-2-amine] yielded a solubility ([1]; Diisopropylamine, 22 °C, organic solvent or mixture, thermodynamic from solid, solvent: Diisopropylamine, read-out: Solubility at 22° C.) of under 50 mg/mL, a solubility ([1]; Diisopropylamine, 65 °C, organic solvent or mixture, solvent: Diisopropylamine, read-out: Solubility at 65° C.) of under 50 mg/mL and a solubility ([1]; Dimethyl carbonate, 22 °C, organic solvent or mixture, thermodynamic from solid, solvent: Dimethyl carbonate, read-out: Solubility at 22° C.) of under 50 mg/mL. It also gave a solubility ([1]; Dimethyl carbonate, 65 °C, organic solvent or mixture, solvent: Dimethyl carbonate, read-out: Solubility at 65° C.) of over 50 mg/mL, a solubility ([1]; Dioxane, 22 °C, organic solvent or mixture, thermodynamic from solid, solvent: Dioxane, read-out: Solubility at 22° C.) of over 50 mg/mL and a solubility ([1]; Ethyl acetate, 22 °C, organic solvent or mixture, thermodynamic from solid, solvent: Ethyl acetate, read-out: Solubility at 22° C.) of under 50 mg/mL. It also gave a solubility ([1]; Ethyl acetate, 65 °C, organic solvent or mixture, solvent: Ethyl acetate, read-out: Solubility at 65° C.) of over 50 mg/mL, a solubility ([1]; Isopropyl acetate, 22 °C, organic solvent or mixture, thermodynamic from solid, solvent: Isopropyl acetate, read-out: Solubility at 22° C.) of under 50 mg/mL and a solubility ([1]; Isopropyl acetate, 65 °C, organic solvent or mixture, solvent: Isopropyl acetate, read-out: Solubility at 65° C.) of under 50 mg/mL. The solubility ([1]; MEK, 22 °C, organic solvent or mixture, thermodynamic from solid, solvent: MEK, read-out: Solubility at 22° C.) was under 50 mg/mL, the solubility ([1]; MEK, 65 °C, organic solvent or mixture, thermodynamic from solid, solvent: MEK, read-out: Solubility at 65° C.) was under 50 mg/mL and the solubility ([1]; MIBK, 22 °C, organic solvent or mixture, thermodynamic from solid, solvent: MIBK, read-out: Solubility at 22° C.) was under 50 mg/mL. The solubility ([1]; MIBK, 65 °C, organic solvent or mixture, thermodynamic from solid, solvent: MIBK, read-out: Solubility at 65° C.) was under 50 mg/mL, the solubility ([1]; MTBE, 22 °C, organic solvent or mixture, thermodynamic from solid, solvent: MTBE, read-out: Solubility at 22° C.) was under 50 mg/mL and the solubility ([1]; MTBE, 65 °C, organic solvent or mixture, thermodynamic from solid, solvent: MTBE, read-out: Solubility at 65° C.) was under 50 mg/mL. It also gave a solubility ([1]; Methanol, 22 °C, organic solvent or mixture, thermodynamic from solid, solvent: Methanol, read-out: Solubility at 22° C.) of under 50 mg/mL, a solubility ([1]; Methanol, 65 °C, organic solvent or mixture, thermodynamic from solid, solvent: Methanol, read-out: Solubility at 65° C.) of under 50 mg/mL and a solubility ([1]; NMP, 22 °C, organic solvent or mixture, thermodynamic from solid, solvent: NMP, read-out: Solubility at 22° C.) of over 200 mg/mL. For the same molecule, the solubility ([1]; THF, 22 °C, organic solvent or mixture, thermodynamic from solid, solvent: THF, read-out: Solubility at 22° C.) was over 50 mg/mL, the solubility ([1]; Toluene, 22 °C, organic solvent or mixture, thermodynamic from solid, solvent: Toluene, read-out: Solubility at 22° C.) was under 50 mg/mL and the solubility ([1]; Toluene, 65 °C, organic solvent or mixture, thermodynamic from solid, solvent: Toluene, read-out: Solubility at 65° C.) was under 50 mg/mL. For the same molecule, the solubility ([1]; acetone, 22 °C, organic solvent or mixture, thermodynamic from solid, solvent: Acetone, read-out: Solubility at 22° C.) was under 50 mg/mL, the solubility ([1]; acetone, 65 °C, organic solvent or mixture, solvent: Acetone, read-out: Solubility at 65° C.) was over 50 mg/mL and the solubility ([1]; butanol, 22 °C, organic solvent or mixture, thermodynamic from solid, solvent: Butanol, read-out: Solubility at 22° C.) was under 50 mg/mL. For the same molecule, the solubility ([1]; butanol, 65 °C, organic solvent or mixture, solvent: Butanol, read-out: Solubility at 65° C.) was under 50 mg/mL, the solubility ([1]; ethanol, 22 °C, organic solvent or mixture, thermodynamic from solid, solvent: Ethanol, read-out: Solubility at 22° C.) was under 50 mg/mL and the solubility ([1]; ethanol, 65 °C, organic solvent or mixture, solvent: Ethanol, read-out: Solubility at 65° C.) was under 50 mg/mL. For the same molecule, the solubility ([1]; i-butanol, 22 °C, organic solvent or mixture, thermodynamic from solid, solvent: i-Butanol, read-out: Solubility at 22° C.) was under 50 mg/mL, the solubility ([1]; i-butanol, 65 °C, organic solvent or mixture, thermodynamic from solid, solvent: i-Butanol, read-out: Solubility at 65° C.) was under 50 mg/mL and the solubility ([1]; isopropanol, 22 °C, organic solvent or mixture, thermodynamic from solid, solvent: Isopropanol, read-out: Solubility at 22° C.) was under 50 mg/mL. It also gave a solubility ([1]; isopropanol, 65 °C, organic solvent or mixture, solvent: Isopropanol, read-out: Solubility at 65° C.) of under 50 mg/mL, a solubility ([1]; n-Heptane, 22 °C, organic solvent or mixture, thermodynamic from solid, solvent: n-Heptane, read-out: Solubility at 22° C.) of under 50 mg/mL and a solubility ([1]; n-Heptane, 65 °C, organic solvent or mixture, thermodynamic from solid, solvent: n-Heptane, read-out: Solubility at 65° C.) of under 50 mg/mL. The solubility ([1]; nitromethane, 22 °C, organic solvent or mixture, thermodynamic from solid, solvent: Nitromethane, read-out: Solubility at 22° C.) was under 50 mg/mL, the solubility ([1]; nitromethane, 65 °C, organic solvent or mixture, thermodynamic from solid, solvent: Nitromethane, read-out: Solubility at 65° C.) was over 50 mg/mL and the solubility ([1]; propanol, 22 °C, organic solvent or mixture, thermodynamic from solid, solvent: Propanol, read-out: Solubility at 22° C.) was under 50 mg/mL. For the same molecule, the solubility ([1]; propanol, 65 °C, organic solvent or mixture, thermodynamic from solid, solvent: Propanol, read-out: Solubility at 65° C.) was under 50 mg/mL, the solubility ([1]; s-butanol, 22 °C, organic solvent or mixture, thermodynamic from solid, solvent: s-butanol, read-out: Solubility at 22° C.) was under 50 mg/mL and the solubility ([1]; s-butanol, 65 °C, organic solvent or mixture, thermodynamic from solid, solvent: s-butanol, read-out: Solubility at 65° C.) was under 50 mg/mL. The solubility ([1]; water, 22 °C, water, thermodynamic from solid, solvent: Water, read-out: Solubility at 22° C.) was under 50 mg/mL, the solubility ([1]; water, 65 °C, water, thermodynamic from solid, solvent: Water, read-out: Solubility at 65° C.) was under 50 mg/mL and the “crystallinity by XRPD” value ([2]; after manual wet milling and after hot drying of wet milled material) was “No reduction in the crystallinity”. For the same molecule, the “crystallinity by XRPD” value ([2]; dry grinded about 5 minutes with mortar and pestle (simulated dry granulation)) was “No reduction of crystallinity”, the influence on crystallinity ([2]; micronized by jet milling) was “no significant influence on crystallinity” and the “crystallinity by XRPD” value ([2]; tableting, 900 MPa, dwell about 6 seconds, with and without crushing of the tablets) was “some reduction of crystallinity”.
